The source of these data is US20250032525A1 (priority 2021, published 2025).

Each structure is given as a SMILES string. Like-named read-outs stand apart in the source and are kept apart here.

The subject of data set [1] is COLO 205. The following applies: COLO 205, NCI-60 database, sulforhodamine B; read-out: Cytotoxic IC50; cited from earlier work.
In data set [2] the test system is BT-549. Description: In vitro cytotoxicity (PrestoBlue). The following applies: Homo sapiens.
Method: (§2) Cells were seeded in 40 μl medium on 384 well plates by an automatic liquid handling machine (Hamilton StarLet) in a density of 2500 cells/well. Adherent cells were cultured for 24 h before the addition of the compounds, while drugs were added to non-adherent cells 2 h after cell seeding. The drugs were serially diluted, and dispensed in an additional 20 μl. Cells were incubated for an additional 72 h, cytotoxicity was assessed by the PrestoBlue viability reagent (Thermo Fisher). Experiments were repeated at least 3 times.
Data set [3] has as its system HL-60(TB). The following applies: NCI-60 database, sulforhodamine B, read-out: Cytotoxic IC50; cited from earlier work.
In data set [4] the test system is MES-SA xenografts. Description: MES-SA xenograft tumors in mice. Format: in vivo, NSG mice. The following applies: MES-SA derived tumors; DOX 2 mg/kg iv. once per week. Here is the method: 2×10^6 cells from each cell line in 200 μl serum-free culture media DMEM were inoculated into NOD.Cg-Prkdc^scid Il2rg^tm1Wjl/SzJ (NSG) mice subcutaneously in the left flank and treatment was initiated when tumors reached 200 mm^3. Mice were treated with saline (n=3 per each cell lines). […] The size of the tumors was measured every second day with a digital caliper.

Data set [5] has as its system EKVX. The following applies: NCI-60 database, sulforhodamine B, read-out: Cytotoxic IC50; cited from earlier work.
Data set [6] relates to T-47D. The following applies: NCI-60 database, sulforhodamine B, read-out: Cytotoxic IC50; cited from earlier work.
Data set [7] has as its system MALME-3M. The following applies: NCI-60 database, sulforhodamine B, read-out: Cytotoxic IC50; cited from earlier work.
In data set [8] the test system is 4T1-LUC mammary tumor. Description: Mouse 4T1 breast cancer model. The following applies: 1 mg/kg LiPyDau, 5 mg/kg DOX, day 12 and 24; endpoint day 33. Format: in vivo, BALB/c mice. Here is the method: Mouse melanoma (B16), lung (Lewis lung carcinoma, LLC) and breast (4T1-LUC) cancer cell lines were used to establish allograft tumors for drug testing. 5×10^5 B16 or 2×10^5 LLC cells were inoculated subcutaneously in 200 μl serum-free culture media. 4T1-LUC tumors were established by injecting 1×10^6 cells in 20 μl serum-free culture media through the nipple directly to the breast tissue of 8 weeks old BALB/c mice on day 0). […] For the B16, LLC and 4T1-LUC tumor models 4, 6 and 6 mice were treated with LiPyDau while 4, 3 and 6 animals were in the saline treated groups, respectively.
Growth of 4T1-LUC tumor was monitored by bioluminescence imaging. Images were taken 10 minutes after tail vein injection of 150 mg/kg dose of D-luciferin into the mouse.

Data set [9] concerns T-47D. Description: In vitro cytotoxicity (PrestoBlue). The following applies: Homo sapiens, T47D.
Method: as §2
In data set [10] the test system is PC-3. The following applies: PC-3, NCI-60 database, sulforhodamine B; read-out: Cytotoxic IC50; cited from earlier work.
Data set [11] concerns HS 578T. As to the kind of experiment: In vitro cytotoxicity (PrestoBlue). The following applies: Homo sapiens.
Method: as §2
Data set [12] deals with SW-620. The following applies: SW-620, NCI-60 database, sulforhodamine B; read-out: Cytotoxic IC50; cited from earlier work.
For data set [13], the system named is HT29. The following applies: HT29, NCI-60 database, sulforhodamine B; read-out: Cytotoxic IC50; cited from earlier work.
Data set [14] deals with MCF7. The following applies: MCF7, NCI-60 database, sulforhodamine B; read-out: Cytotoxic IC50; cited from earlier work.
The test system of data set [15] is OVCAR-8. The following applies: OVCAR-8, NCI-60 database, sulforhodamine B; read-out: Cytotoxic IC50; cited from earlier work.
Data set [16] has as its system BT-549. The following applies: BT-549, NCI-60 database, sulforhodamine B; read-out: Cytotoxic IC50; cited from earlier work.
The test system of data set [17] is UO-31. The following applies: UO-31, NCI-60 database, sulforhodamine B; read-out: Cytotoxic IC50; cited from earlier work.
Data set [18] deals with DU-145. The following applies: DU-145, NCI-60 database, sulforhodamine B; read-out: Cytotoxic IC50; cited from earlier work.
Data set [19] relates to MES-SA/Dx5. As to the kind of experiment: In vitro cytotoxicity. Format: cell-based. The following applies: Homo sapiens. The text has this:
(§1) Experiments were repeated at least 3 times.

The subject of data set [20] is MES-SA. As to the kind of experiment: In vitro cytotoxicity. Format: cell-based. The following applies: Homo sapiens.
From the text: as §1

Data set [21] has as its system patient-derived lung adenocarcinoma xenografts. Description: Patient-derived xenograft (PDX) model. It is filed as in vivo, NSG mice. The following applies: single treatment; LiPyDau 0.5 mg/kg, DOX 2 mg/kg, paclitaxel 12 mg/kg; 7 days. In general terms: A xenograft is tissue or cells of one species grown in another, often human tumour cells in immunodeficient mice.
From the text: A piece from the tumor tissue was transplanted subcutaneously into the right flank and propagated in NOD.Cg-Prkdc^scid Il2rg^tm1Wjl/SzJ (NSG) mice for 7 months. After the xenografted tumor reached 1000 mm^3, tumor pieces were retransplanted subcutaneously into the right flank of 20 additional NSG mice, which were given a single treatment with various chemotherapeutics or LiPyDau. Every treatment group consists of 5 animals. After daily monitoring of the tumor volume for one week, the mice were sacrificed and the cytotoxicity of the treatments was investigated on tissue slices by image analysis.
For treatment, tumor pieces were engrafted subcutaneously.
In data set [22] the test system is NCI-60 cell lines. As to the kind of experiment: NCI DTP NCI-60 cell line screen database (sulforhodamine B), panel. It is filed as cell-based. The following applies: Homo sapiens.
The test system of data set [23] is MDA-MB-231. Description: In vitro cytotoxicity (PrestoBlue). The following applies: Homo sapiens, MDA-MB-231, 72 h, read-out: Cytotoxic IC50.
Method: as §2

For orientation: IC50 means the concentration at which inhibition is half-maximal. For `COc1cccc2c1C(=O)c1c(O)c3c(c(O)c1C2=O)C[C@@](O)(C(=O)CO)C[C@@H]3O[C@H]1C[C@H](N)[C@H](O)[C@H](C)O1` [DOX, doxorubicin], the IC50 in [1] was 158 nM; in [2] (BT-549), 20 nM; in data set [3], 62.4 nM; in [5], 484 nM; in [6] it was 83 nM; in data set [7], 51.9 nM. Further, the IC50 in data set [9] was 30 nM; in data set [10], 246 nM; in data set [11], 80 nM; in data set [12], 70.1 nM; in data set [13], 171 nM; in data set [14], 15.6 nM. Moreover, the IC50 was 130 nM in [15]; 212 nM in data set [16]; 553 nM in data set [17]; 100 nM in data set [18]; 2880 nM in [19] (MES-SA/Dx5, read-out: IC50); 20 nM in data set [19] (MES-SA/Dx5, presence of 1 μM tariquidar, read-out: IC50 + TQ). Besides, the half-inhibitory concentration (IC50) in [20] (presence of 1 μM tariquidar, read-out: IC50 + TQ) was 20 nM; in data set [20] (read-out: IC50), 72 nM; in data set [22] (read-out: Cytotoxic IC50, av. breast), 190 nM; in data set [22] (read-out: Cytotoxic IC50, av. colorectal), 296 nM; in data set [22] (read-out: Cytotoxic IC50, av. leukaemia) it was 49.8 nM; in data set [22] (read-out: Cytotoxic IC50, av. lung) it was 221 nM. The 50% inhibitory concentration (IC50) in data set [22] (read-out: Cytotoxic IC50, av. melanoma) was 177 nM; in data set [22] (read-out: Cytotoxic IC50, av. ovarian) it was 3650 nM; in [22] (read-out: Cytotoxic IC50, av. prostatic), 173 nM; in [22] (read-out: Cytotoxic IC50, av. renal), 247 nM. The Overall survival entry in data set [4] was “increased the overall survival”. For the same compound, the “Tumor growth / tumor cell viability” value in data set [8] was “small but significant effect on the growth of tumors”. The Tumor growth result in data set [21] is listed as “failed to exert any effect on tumor growth”.

On to `COc1cccc2c1C(=O)c1c(O)c3c(c(O)c1C2=O)C[C@@](O)(C(C)=O)C[C@@H]3O[C@H]1C[C@H]2[C@H](OC3CCCN32)[C@H](C)O1` (stereo partly shown) [PyDau, 2-deamino-2-pyrrolino-daunorubicin], for which the IC50 came out at 1.09 nM in data set [23]; 4.68 nM in data set [2] (BT-549, 72 h, read-out: Cytotoxic IC50); 4.25 nM in data set [9] (72 h, read-out: Cytotoxic IC50); 1.77 nM in data set [11] (72 h, read-out: Cytotoxic IC50); 2.51 nM in data set [19] (MES-SA/Dx5); 1.35 nM in [20].
